Results on 40 compounds are retold here after patent US8163737B2 (Vertex Pharmaceuticals Incorporated, priority 2006, dated 2012).

The structures appear in SMILES notation.

One test deals with endogenous CGRP receptor (Homo sapiens, UniProt O60894+Q16602). The experiment in a line: CGRP functional antagonism using SK-N-MC-BLA (4C10), β-lactamase transcriptional reporter assay. Conditions: SK-N-MC (4C10) cells, inhibition of β-lactamase expression in the presence of 200 pM CGRP. The test is classed as cell-based. On the technique in general: In a reporter assay the amount or activity of a reporter protein is the signal.

Test [1] deals with T1, CGRP receptor (SK-N-MC membrane) (Homo sapiens, UniProt O60894+Q16602).
T1 construct: Purified SK-N-MC membrane was purchased from Perkin Elmer; purchased Perkin Elmer; host or cells: SK-N-MC membrane
The experiment in a line: I125-CGRP binding displacement assay on purified SK-N-MC membrane. On the procedure: Purified SK-N-MC membrane was purchased from Perkin Elmer. The membrane was thawed quickly and placed on ice. The compounds were diluted with CGRP binding solution (25 mM Tris-HCl, pH7.4, 5 mM MgCl2, 0.1% BSA and 0.05% Tween). The membrane was diluted 1:20 with the binding solution and homogenized with Tissue Matster-50 Homogenizer (Omni International) for 30 sec. The homogenized membrane was added to compounds in the binding solution. […] After 2 hour incubation at room temperature, the reaction was stopped by rapid filtration through 0.5% PEI treated GF/C filter plate (Perkin Elmer) and the filter plate was washed with ice-cold washing solution (50 mM Tris HCl, pH7.4, 5 mM MgCl2 and 0.1% BSA) using cell harvestor (Tomtec). The radioactivity of the filter plates were read on Topcount (Packard). The nonspecific binding was determined in the control reaction where 1 uM unlabelled CGRP was preincubated with the membrane prior to I125-CGRP addition. The total binding was determined in the control reaction of the membrane and I125-CGRP in the absence of compound. The percent displacement of I125-CGRP with compounds was calculated using nonspecific and total binding controls. The curve fitting was carried out using MOD3.

T1 sequence (Q16602 23-461): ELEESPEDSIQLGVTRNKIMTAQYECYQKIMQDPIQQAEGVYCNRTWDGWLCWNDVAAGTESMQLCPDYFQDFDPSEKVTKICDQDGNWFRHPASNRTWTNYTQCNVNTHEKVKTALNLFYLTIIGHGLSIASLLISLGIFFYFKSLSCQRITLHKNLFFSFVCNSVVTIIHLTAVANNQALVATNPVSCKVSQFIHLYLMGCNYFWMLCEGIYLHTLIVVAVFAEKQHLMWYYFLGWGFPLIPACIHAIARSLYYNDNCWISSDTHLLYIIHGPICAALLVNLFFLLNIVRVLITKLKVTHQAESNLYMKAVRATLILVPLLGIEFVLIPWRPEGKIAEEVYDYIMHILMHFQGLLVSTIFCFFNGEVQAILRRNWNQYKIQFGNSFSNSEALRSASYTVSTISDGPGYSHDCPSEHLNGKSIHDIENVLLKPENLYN
T1 sequence (O60894 27-148): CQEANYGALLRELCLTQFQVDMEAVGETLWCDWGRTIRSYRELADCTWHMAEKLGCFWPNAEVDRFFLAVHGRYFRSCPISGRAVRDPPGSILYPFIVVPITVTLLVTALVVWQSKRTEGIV
Sequence of endogenous CGRP receptor (Q16602 23-461): as the sequence (Q16602 23-461) above
Sequence of endogenous CGRP receptor (O60894 27-148): as the sequence (O60894 27-148) above

With `CC(C)(C)CCN1C(=O)[C@H](CC(=O)N2CCC(N3CCc4ccccc4NC3=O)CC2)S[C@H]1c1cccc(F)c1C1CCNCC1` [Compound 553, 3-(1-(2-((2S,5S)-2-(3-fluoro-2-(piperidin-4-yl)phenyl)-3-(3,3-dimethylbutyl)-4-oxothiazolidin-5-yl)acetyl)piperidin-4-yl)-4,5-dihydro-1H-benzo[d][1,3]diazepin-2(3H)-one], the IC50 at endogenous CGRP receptor was 1 to 5 µM. For the same compound, in test [1], the Ki is < 1 µM.

For `CC(C)(C)CCN1C(=O)[C@H](CC(=O)N2CCC(N3CCc4ccccc4NC3=O)CC2)SC1c1cccc(F)c1N1CC[C@H](O)C1` (some centres unmarked) [Compound 486], the IC50 at endogenous CGRP receptor is < 1 µM. Moreover, the Ki in test [1] is < 1 µM.

As for `CC(C)(C)CCN1C(=O)C(CC(=O)N2CCC(N3Cc4ccccc4NC3=O)CC2)SC1c1ccccc1N1CCC(O)CC1` (centres unmarked) [Compound 49], the IC50 at endogenous CGRP receptor is < 1 µM. Moreover, the Ki in test [1] is < 1 µM.

As to `CC(C)(C)CCN1C(=O)C(CC(=O)N2CCC(N3Cc4ccccc4NC3=O)CC2)SC1c1ncc[nH]1` (centres unmarked) [Compound 306], the IC50 at endogenous CGRP receptor is > 5 µM. Moreover, the Ki in test [1] is > 5 µM.

On to `CC(C)(C)CCN1C(=O)[C@H](CC(=O)N2CCC(N3CCc4ccccc4NC3=O)CC2)S[C@@H]1c1cccc(F)c1C1CCNCC1` [Compound 552, 3-(1-(2-((2R,5S)-2-(3-fluoro-2-(piperidin-4-yl)phenyl)-3-(3,3-dimethylbutyl)-4-oxothiazolidin-5-yl)acetyl)piperidin-4-yl)-4,5-dihydro-1H-benzo[d][1,3]diazepin-2(3H)-one], for which the IC50 on endogenous CGRP receptor is < 1 µM. Besides, the Ki in test [1] was < 1 µM.

Turning to `CCN1CCC2(CC1)SC(CC(=O)N1CCC(N3CCc4ccccc4NC3=O)CC1)C(=O)N2CCC(C)(C)C` (centres unmarked) [Compound 288], the IC50 at endogenous CGRP receptor is < 1 µM. Moreover, in test [1], the Ki was < 1 µM.

For the compound `CC(C)CCN1C(=O)C(CC(=O)N2CCC3(CC2)CC(=O)c2ccccc2O3)SC1c1ccccc1N1CCN(C)CC1` (centres unmarked) [Compound 331], the IC50 at endogenous CGRP receptor was < 1 µM. The Ki in test [1] was < 1 µM.

As for `CC(C)CCN1C(=O)C(CC(=O)N2CCC(N3CCc4ccccc4NC3=O)CC2)SC1c1ccccc1N1CCC(O)CC1` (centres unmarked) [Compound 120], at endogenous CGRP receptor, the IC50 was < 1 µM. The Ki in test [1] is < 1 µM.

As to `CC(C)(C)N1CCN(c2c(F)cccc2C2S[C@@H](CC(=O)N3CCC(N4CCc5ccccc5NC4=O)CC3)C(=O)N2CC2CCCCC2)CC1` (some centres unmarked) [Compound 515], the half-maximal inhibitory concentration (IC50) at endogenous CGRP receptor was < 1 µM. For the same compound, the Ki in test [1] was < 1 µM.

`O=C(CC1SC(c2ccccc2)N(Cc2cccnc2)C1=O)N1CCC(N2Cc3ccccc3NC2=O)CC1` (centres unmarked) [Compound 278]: the IC50 on endogenous CGRP receptor was < 1 µM. The Ki in test [1] was < 1 µM.

`CN(c1ccccc1C1SC(CC(=O)N2CCC(N3CCc4ccccc4NC3=O)CC2)C(=O)N1CCC(C)(C)C)[C@H]1CCN(Cc2ccccc2)C1` (some centres unmarked) [Compound 409]: the IC50 on endogenous CGRP receptor was > 5 µM. In addition, the Ki in test [1] was < 1 µM.

Consider `CN(C)c1ccccc1C1SC(CC(=O)N2CCC(N3Cc4ccccc4NC3=O)CC2)C(=O)N1CCC(C)(C)C` (centres unmarked) [Compound 211], for which the IC50 on endogenous CGRP receptor fell in the range of 1 to 5 µM. Moreover, in test [1], the inhibitory constant (Ki) is < 1 µM.

In the case of `CC(C)(C)CCN1C(=O)C(CC(=O)N2CCC(N3CCc4ccccc4NC3=O)CC2)SC1c1ccc(F)cc1F` (centres unmarked) [Compound 54], the IC50 on endogenous CGRP receptor is < 1 µM. Further, in test [1], the Ki was < 1 µM.

As to `CC(C)CCN1C(=O)C(CC(=O)N2CCC(N3CCc4ccccc4NC3=O)CC2)SC1c1c(F)cccc1C(F)(F)F` (centres unmarked) [Compound 194], the IC50 at endogenous CGRP receptor was < 1 µM. Besides, in test [1], the Ki was < 1 µM.

`CC(C)CC1SC(CC(=O)N2CCC(N3Cc4ccccc4NC3=O)CC2)C(=O)N1CCc1ccncc1` (centres unmarked) [Compound 43]: the IC50 at endogenous CGRP receptor fell in the range of 1 to 5 µM. In addition, the Ki in test [1] is < 1 µM.

As to `CC(C)(C)CCN1C(=O)C(CC(=O)N2CCC(N3Cc4ccccc4NC3=O)CC2)SC1c1ccccc1N1CCN(c2ccccc2)CC1` (centres unmarked) [Compound 367], the IC50 at endogenous CGRP receptor is < 1 µM. Besides, in test [1], the Ki was < 1 µM.

In the case of `CC(C)CCN1C(=O)[C@H](CC(=O)N2CCC(N3CCc4ccccc4NC3=O)CC2)SC1c1cccc(F)c1N1CCN(C(C)(C)C)CC1` (some centres unmarked) [Compound 545], on endogenous CGRP receptor, the IC50 was < 1 µM. Moreover, in test [1], the Ki is < 1 µM.

On to `CN1CCN(c2ccc(F)cc2[C@@H]2S[C@@H](CC(=O)N3CCC(n4c(=O)[nH]c5ncccc54)CC3)C(=O)N2CCC(C)(C)C)CC1` [Compound 394], for which the IC50 on endogenous CGRP receptor is < 1 µM. Moreover, in test [1], the Ki was < 1 µM.

As for `COc1ccccc1C1SC(CC(=O)N2CCC(N3Cc4ccccc4NC3=O)CC2)C(=O)N1CCC(C)C` (centres unmarked) [Compound 80], on endogenous CGRP receptor, the IC50 was < 1 µM. In addition, in test [1], the Ki was < 1 µM.

Regarding `CC(C)(C)N1CCN(c2c(F)cccc2[C@H]2S[C@@H](CC(=O)N3CCC(N4CCc5ccccc5NC4=O)CC3)C(=O)N2CC2CCOCC2)CC1` [Compound 523], the IC50 at endogenous CGRP receptor is < 1 µM. Also, the Ki in test [1] is < 1 µM.

With `O=C(CC1SC(c2ccccc2)N(CC(F)(F)F)C1=O)N1CCC(N2Cc3ccccc3NC2=O)CC1` (centres unmarked) [Compound 109], the IC50 on endogenous CGRP receptor was 1 to 5 µM. Moreover, the Ki in test [1] is < 1 µM.

In the case of `CC(C)(C)CCN1C(=O)C(CC(=O)N2CCC(N3Cc4ccccc4NC3=O)CC2)SC1c1ccccc1-n1ccnc1` (centres unmarked) [Compound 60], the IC50 at endogenous CGRP receptor is < 1 µM. Besides, the Ki in test [1] is < 1 µM.

Regarding `CC(C)CCN1C(=O)C(CC(=O)N2CCC(N3CCc4ccccc4NC3=O)CC2)SC1c1ccccc1-n1ccnc1` (centres unmarked) [Compound 260], the IC50 on endogenous CGRP receptor was < 1 µM. The Ki in test [1] is < 1 µM.

As for `O=C(CC1SC(c2ccccc2)N(CC2CCCCC2)C1=O)N1CCC(N2Cc3ccccc3NC2=O)CC1` (centres unmarked) [Compound 264], the IC50 at endogenous CGRP receptor was < 1 µM. Besides, in test [1], the Ki was < 1 µM.

Consider `CC(C)(C)N1CCN(c2c(F)cccc2[C@H]2S[C@@H](CC(=O)N3CCC(N4CCc5ccccc5NC4=O)CC3)C(=O)N2CCc2ccc(F)cc2)CC1` [Compound 503], for which, on endogenous CGRP receptor, the IC50 is < 1 µM. In addition, the Ki in test [1] is < 1 µM.

`CC(C)CCN1C(=O)C(CC(=O)N2CCC(N3Cc4ccccc4NC3=O)CC2)SC12CCSCC2` (centres unmarked) [Compound 174]: at endogenous CGRP receptor, the IC50 is < 1 µM. Besides, the Ki in test [1] is < 1 µM.

Turning to `CC(C)CCN1C(=O)C(CC(=O)N2CCC(N3Cc4ccccc4NC3=O)CC2)SC1c1cccc(Cl)c1` (centres unmarked) [Compound 33], the IC50 on endogenous CGRP receptor was < 1 µM. Besides, the Ki in test [1] was < 1 µM.

Take `CC(C)CCN1C(=O)C(CC(=O)N2CCC(n3cc(-c4ccccc4)[nH]c3=O)CC2)SC1C1CCCC1` (centres unmarked) [Compound 87]: the IC50 on endogenous CGRP receptor fell in the range of 1 to 5 µM. In test [1], this compound displayed a Ki of 1 to 5 µM.

As for `CC(C)CCN1C(=O)C(CC(=O)N2CCC(n3cc(-c4ccccc4)[nH]c3=O)CC2)SC1c1ccc(F)cc1F` (centres unmarked) [Compound 237], the IC50 at endogenous CGRP receptor is < 1 µM. The Ki in test [1] is > 5 µM.

Turning to `CC(C)(C)CCN1C(=O)C(CC(=O)N2CCC(N3CCc4ccccc4NC3=O)CC2)SC1c1ccccc1F` (centres unmarked) [Compound 244], on endogenous CGRP receptor, the IC50 is < 1 µM. Further, in test [1], the Ki is < 1 µM.

As to `CC(C)(C)N1C(=O)C(CC(=O)N2CCC(N3Cc4ccccc4NC3=O)CC2)SC1c1ccccc1` (centres unmarked) [Compound 251], the IC50 at endogenous CGRP receptor was > 5 µM. The Ki in test [1] lay within 1 to 5 µM.

Turning to `CC(C)CCN1C(=O)C(CC(=O)N2CCC(N3Cc4ccccc4NC3=O)CC2)SC1c1ccc(F)c(F)c1` (centres unmarked) [Compound 202], the IC50 on endogenous CGRP receptor was < 1 µM. Moreover, the Ki in test [1] was < 1 µM.

For `CC(C)(C)CCN1C(=O)C(CC(=O)N2CCC(N3CCc4ccccc4NC3=O)CC2)SC1c1cccc(F)c1NCCN1CCOCC1` (stereo in doubt) [Compound 506, 3-(1-(2-((5S)-2-(2-(2-Morpholinoethylamino)-3-fluorophenyl)-3-(3,3-dimethylbutyl)-4-oxothiazolidin-5-yl)acetyl)piperidin-4-yl)-4,5-dihydro-1H-benzo[d][1,3]diazepin-2(3H)-one], on endogenous CGRP receptor, the IC50 was < 1 µM. Moreover, the Ki in test [1] is < 1 µM.

Consider `CC(C)CCN1C(=O)C(CC(=O)N2CCC(N3Cc4ccccc4NC3=O)CC2)SC1c1c(Cl)cccc1Cl` (centres unmarked) [Compound 76], for which the IC50 on endogenous CGRP receptor is < 1 µM. Besides, the Ki in test [1] was < 1 µM.

As for `CN1CCN(c2ccccc2C2SC(CC(=O)N3CCC4(CC3)CC(=O)Nc3ccccc3O4)C(=O)N2CCC(C)(C)C)CC1` (centres unmarked) [Compound 328], at endogenous CGRP receptor, the IC50 was < 1 µM. In addition, in test [1], the inhibitory constant (Ki) was < 1 µM.

As to `Cc1cc(C2SC(CC(=O)N3CCC(N4CCc5ccccc5NC4=O)CC3)C(=O)N2CCC(C)(C)C)cc2cn[nH]c12` (centres unmarked) [Compound 3], the IC50 on endogenous CGRP receptor was < 1 µM. The Ki in test [1] is < 1 µM.

In the case of `COc1ccc(C2SC(CC(=O)N3CCC(n4cc(-c5ccccc5)[nH]c4=O)CC3)C(=O)N2CCC(C)C)cc1OC` (centres unmarked) [Compound 19], the IC50 on endogenous CGRP receptor is > 5 µM. For the same compound, the Ki in test [1] was > 5 µM.

Consider `CC(C)(C)CCN1C(=O)C(CC(=O)N2CCC(n3c(=O)[nH]c4ccccc43)CC2)SC1c1ccccc1-n1cccn1` (centres unmarked) [Compound 297], for which the IC50 at endogenous CGRP receptor was < 1 µM. The Ki in test [1] is < 1 µM.

Regarding `CC(C)(C)CCN1C(=O)[C@H](CC(=O)N2CCC(n3c(=O)[nH]c4ncccc43)CC2)SC1c1cccc(F)c1N1CCC(F)(F)C1` (some centres unmarked) [Compound 482], the IC50 on endogenous CGRP receptor was 1 to 5 µM. Also, in test [1], the Ki was < 1 µM.

As for `CN(C)c1ccccc1C1SC(CC(=O)N2CCC(n3c(=O)[nH]c4ccccc43)CC2)C(=O)N1CCC(C)(C)C` (centres unmarked) [Compound 299], the IC50 at endogenous CGRP receptor is < 1 µM. The Ki in test [1] was < 1 µM.

The IC50 is the point on the concentration scale where inhibition reaches its midpoint. What is called Ki is a measure of affinity in units of concentration, obtained from inhibition or displacement. High values mean weaker binding, low ones tighter binding.
